Experimental data: PubChem BioAssay (NCI)
Several values for one entry are separate records, joined by “and”; a condition that tells them apart may be missing. Identical values can stand only once.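 1) Cells in 96-well plates. 2) Compound, 48 h, 5 concentrations. 3) Linear interpolation between surrounding doses. 4) Unreached endpoint = highest concentration. Here, GI50 denotes the concentration required for 50% inhibition of growth. TGI marks complete inhibition of growth.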

Experiments:
Experiment in all cases: NCI anticancer screen, dose series, 48 h
CCRF-CEM leukemia = tested on: CCRF-CEM leukemia
COLO 205 colon = tested on: COLO 205 colon
HCC-2998 colon = tested on: HCC-2998 colon
K-562 leukemia = tested on: K-562 leukemia
LOX IMVI melanoma = tested on: LOX IMVI melanoma
OVCAR-4 ovarian = tested on: OVCAR-4 ovarian
RPMI-8226 leukemia = tested on: RPMI-8226 leukemia
SF-268 CNS = tested on: SF-268 CNS
SNB-19 CNS = tested on: SNB-19 CNS
U251 CNS = tested on: U251 CNS

SMILES	GI50 (CCRF-CEM leukemia) [µM]	TGI (CCRF-CEM leukemia)	TGI (COLO 205 colon)	GI50 (HCC-2998 colon) [µM]	TGI (HCC-2998 colon)	GI50 (K-562 leukemia) [µM]	TGI (K-562 leukemia)	GI50 (LOX IMVI melanoma) [µM]	TGI (LOX IMVI melanoma)	GI50 (OVCAR-4 ovarian) [µM]	TGI (OVCAR-4 ovarian)	GI50 (RPMI-8226 leukemia) [µM]	TGI (RPMI-8226 leukemia) [µM]	GI50 (SF-268 CNS) [µM]	TGI (SF-268 CNS)	GI50 (SNB-19 CNS)	TGI (SNB-19 CNS)	GI50 (U251 CNS) [µM]	TGI (U251 CNS)	GI50 (COLO 205 colon) [µM]
O=C(Nc1nccs1)c1cc2c(cc1Cl)Sc1nccn1S2(=O)=O	5.05	24.8 µM	30.7 µM	15.9	29.4 µM	15.9	37.1 µM	10.9	25.6 µM	16.4	38.6 µM	9.29	23.6	19.2	46.9 µM	18.9 µM	37 µM	17.2	31 µM	–
Cn1cccc1-c1cc(-c2cccs2)[nH]c(=O)c1C#N	> 100	> 100 µM	> 100 µM	> 100	> 100 µM	> 100	> 100 µM	> 100	> 100 µM	> 100	> 100 µM	> 100	> 100	20.6	> 100 µM	> 100 µM	> 100 µM	> 100	> 100 µM	> 100
C#CCOCn1cnc2c(=S)nc[nH]c21	–	> 100 µM	> 100 µM	–	> 100 µM	–	> 100 µM	–	> 100 µM	–	> 100 µM	–	> 100	–	> 100 µM	–	> 100 µM	–	> 100 µM	–
O=C1/C(=C\C(Cl)=C/c2ccc([N+](=O)[O-])cc2)SC(=S)N1CCc1ccc(O)cc1	0.31	5.67 µM	3.64 µM	0.392	1.42 µM	0.285	> 100 µM	0.187	0.387 µM	0.496	1.8 µM	0.268	0.884	0.831	2.77 µM	0.507 µM	1.86 µM	0.261	0.85 µM	0.882
Cc1c(C(=O)CC(=O)C(=O)Nc2ccc(Cl)c(Cl)c2)[n+](=O)c2ccccc2n1[O-]	–	43 µM	36.1 µM	–	67.3 µM	–	57.2 µM	–	53.2 µM	–	34.7 µM	–	45.7	–	85.2 µM	–	> 100 µM	–	72.3 µM	–
Cc1cccc2c(N=Nc3ccc(S(N)(=O)=O)cc3)c(O)[nH]c12	> 25	> 25 µM	> 25 µM	> 25	> 25 µM	> 25	> 25 µM	> 25	> 25 µM	> 25	> 25 µM	> 25	> 25	> 25	> 25 µM	> 25 µM	> 25 µM	> 25	> 25 µM	> 25
CCC(C)OC(=O)C1C2CCC(O2)C1C(=O)O (stereo not drawn)	–	> 100 µM	> 60.1 µM	–	> 100 µM	–	> 100 µM	–	> 58.3 µM	–	> 100 µM	–	> 68.7	–	> 80.8 µM	–	> 100 µM	–	> 67.3 µM	–
Cc1c2c(nn1C(=O)c1nn(-c3ccc(Cl)cc3)cc1O)-c1ccccc1CC2	0.0477	> 49.1 µM	4.22 µM	0.377	> 100 µM	0.0273	> 100 µM	0.0722	> 100 µM	0.246	> 100 µM	0.0432	–	0.0469	> 100 µM	0.0446 µM	> 100 µM	0.0292	> 100 µM	0.323
CN=C1Nc2ccc(Cl)cc2C(c2ccccc2)=NN1C	–	> 100 µM	> 100 µM	–	64.7 µM	–	> 100 µM	–	> 100 µM	–	> 100 µM	–	> 100	–	> 100 µM	–	> 100 µM	–	> 100 µM	–
O=C1C(=O)c2ccccc2-c2ccccc21	1.5	4.85 µM	4.28 µM	1.99	3.52 µM	1.01	4.02 µM	0.367	1.79 µM	1	2.25 µM	0.583	2.79	1.61	3.15 µM	1.45 µM	2.95 µM	1.67	3.53 µM	2.02
CN[C@]12CC3(C=CC(=O)C=C3)O[C@@]1(Cc1ccc(OC)cc1)N(C)C(=O)N2	1.8	3.72 µM	6.66 µM	1.93	3.61 µM	1.58	> 100 µM	1.56	3.2 µM	3.89	19.1 µM	1.63	3.32	2.85	9.82 µM	3.63 µM	14.5 µM	1.85	3.99 µM	2.53
COc1cc(-c2cc(=O)c3ccccc3o2)ccc1N	–	> 100 µM	> 100 µM	–	> 100 µM	–	> 100 µM	–	> 100 µM	–	> 100 µM	–	> 100	–	> 100 µM	–	> 100 µM	–	> 100 µM	–
COc1ccc(-c2cnc3ccnn3c2-c2cc(OC)c(OC)c(OC)c2)cc1	3.52	> 100 µM	5.51 µM	3.79	> 100 µM	0.706	> 100 µM	5.96	> 100 µM	9.69	> 100 µM	4.14	> 100	5.86	> 100 µM	5.16 µM	> 100 µM	4.64	> 100 µM	2.1
ClC1CCC2OOC1O2 (stereo not drawn)	–	> 100 µM	> 100 µM	–	> 100 µM	–	> 100 µM	–	> 100 µM	–	> 100 µM	–	> 100	–	> 100 µM	–	> 100 µM	–	> 100 µM	–
CC(=O)O[C@H]1C(=O)O[C@@H]2C[C@H]3C(C)=CC(=O)[C@@H](O)[C@]3(C)[C@H]3[C@@]4(O)OC[C@]32[C@@H]1[C@@H](C)[C@H]4O	0.015	0.073 µM and 0.572 µM	0.365 µM and 0.686 µM	0.032	0.548 µM and 0.271 µM	0.0188	0.125 µM and 0.128 µM	< 0.01	0.0642 µM and 0.442 µM	0.0394	0.758 µM and 0.409 µM	< 0.0142	0.0989	0.0173	0.0585 µM and 0.184 µM	0.0138 µM and 0.0382 µM	0.0995 µM and 0.135 µM	< 0.01	0.049 µM and 0.0797 µM	0.136
